One data set deals with T1, tyrosinase (Mus musculus, UniProt P11344).
T1 construct: the supernatant obtained constitutes the cell lysate used as tyrosinase source in the enzymatic assay; endogenous in cells; host or cells: B16F1 murine melanoma cells, cultured with alpha-MSH; detergent lysate supernatant
T1 sequence (P11344 19-533): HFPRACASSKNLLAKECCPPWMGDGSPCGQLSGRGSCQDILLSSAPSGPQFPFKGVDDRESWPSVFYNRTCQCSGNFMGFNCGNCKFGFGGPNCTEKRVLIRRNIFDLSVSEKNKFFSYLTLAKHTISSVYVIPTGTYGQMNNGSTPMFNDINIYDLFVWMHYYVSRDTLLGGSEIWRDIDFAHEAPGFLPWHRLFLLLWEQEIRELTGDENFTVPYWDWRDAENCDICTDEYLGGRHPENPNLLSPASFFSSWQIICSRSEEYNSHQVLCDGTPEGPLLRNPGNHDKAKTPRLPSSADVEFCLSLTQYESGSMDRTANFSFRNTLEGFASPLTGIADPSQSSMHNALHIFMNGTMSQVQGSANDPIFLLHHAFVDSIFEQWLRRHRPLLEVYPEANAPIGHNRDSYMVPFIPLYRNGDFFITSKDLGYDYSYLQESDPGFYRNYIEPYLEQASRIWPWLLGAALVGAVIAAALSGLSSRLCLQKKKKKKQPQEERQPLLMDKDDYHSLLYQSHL
In words: Tyrosinase activity inhibition assay (B16F1 cell lysate, L-tyrosine substrate, MBTH, absorbance at 520 nm). The note with it: lysate of B16F1 cells (murine melanoma line) as tyrosinase source, 37° C., reading at 520 nm after 6 hours. Format: biochemical. As for the experimental part: The activity of the inhibitors is measured starting from a lysate of B16F1 cells (murine melanoma line). In the presence of the L-tyrosine substrate, the tyrosinase present in these cells catalyses the hydroxylation of L-tyrosine to give L-DOPA and then the oxidation of the L-DOPA to give dopaquinone. In the presence of MBTH (3-methyl-2-benzothiazolinone hydrazone), the dopaquinone is trapped so as to form a pink complex which absorbs at 520 nm.
The B16F1 cells are cultured in DMEM medium+10% foetal calf serum+10^−9 M α-MSH for 4 days at 37° C. under 7% CO2. They are treated with trypsin, washed with PBS, counted and pelleted. The pellet is taken up at 10^7 cells/ml in lysis buffer (10 mM sodium phosphate, pH 6.8−1% Igepal) and the suspension is treated with ultrasound for 10 seconds. After centrifugation for 30 minutes at 4000 rpm, the supernatant obtained constitutes the cell lysate used as tyrosinase source in the enzymatic assay.
The assays are carried out in duplicate in 384-well plates in a total volume of 50 μl. Each well contains: • 40 μl of solution containing 1.25 mM L-tyrosine, 6.25 μM L-DOPA (cofactor) and 3.75 mM MBTH in buffer B (62.25 mM sodium phosphate, pH 6.8-2.5% dimethylformamide), • 5 μl of inhibitor diluted in DMSO, • 5 μl of cell lysate diluted to ½ in 50 mM Tris HCl buffer, pH 7.5.
The plate is incubated at 37° C. and a spectrophotometric reading is carried out at 520 nm after incubating for 6 hours. In order to avoid any possible absorption of the products, the system employs corrected absorbance (absorbance at time 6 h—absorbance at time zero).
The inhibitors are assayed in terms of dose-response so as to calculate an IC50 (dose which inhibits 50% of the enzymatic activity).
Several internal controls are added to each experiment: • control for 100% activity: the 5 μl of inhibitor are replaced with 5 μl of DMSO, • control for 50% activity: the 5 μl of inhibitor are replaced with 5 μl of phenylthiourea at 300 μM in DMSO, • control for 0% activity: the L-tyrosine substrate is replaced with buffer B.

By IC50 is commonly meant the concentration that inhibits the measured activity by half. As a reminder, the melting point is the temperature, or range, at which the solid turns liquid.

As for `On1c(-c2ccccc2)c[nH]c1=S` [Compound 4, 1-hydroxy-5-phenyl-1,3-dihydroimidazole-2-thione], it took 0.89 µM to reach half-maximal inhibition against tyrosinase (IC50). The molecule `COn1ccn(C)c1=S` [Compound 3, 1-methoxy-3-methyl-1,3-dihydroimidazole-2-thione] showed a melting point of 56.9 to 57.5 °C. The same molecule yielded a half-maximal inhibitory concentration (IC50) against tyrosinase of 72 µM. For the molecule `S=c1[nH]ccn1OCc1cccnc1` [Compound 2, 1-(pyridin-3-ylmethoxy)-1,3-dihydroimidazole-2-thione], the melting point lay in the range of 128 to 129 °C. With `On1c(-c2cccs2)c[nH]c1=S` [Compound 8, 1-hydroxy-5-(thiophen-2-yl)-1,3-dihydroimidazole-2-thione], the melting point was in the range of 183.6 to 184.8 °C. Also, half-maximal inhibition on tyrosinase (IC50) required 3.7 µM. In the case of `COc1ccc(-c2c[nH]c(=S)n2O)cc1` [Compound 6, 1-hydroxy-5-(4-methoxyphenyl)-1,3-dihydroimidazole-2-thione], the melting point amounted to 150 °C. Further, 0.82 µM corresponded to half-maximal inhibition at tyrosinase (IC50). `COc1ccc(-c2cn(O)c(=S)[nH]2)cc1` [Compound 7, 1-hydroxy-4-(4-methoxyphenyl)-1,3-dihydroimidazole-2-thione] returned a melting point of 160 °C.

Take `On1cc(-c2ccccc2)[nH]c1=S` [Compound 5, 1-hydroxy-4-phenyl-1,3-dihydroimidazole-2-thione]: the melting point amounted to 196.3 °C. `COn1cc[nH]c1=S` [Compound 1, 1-methoxy-1,3-dihydroimidazole-2-thione] gave a melting point of 111 to 111.8 °C.

The values are drawn from patent US20100010049A1, “Novel Tyrosinase inhibitors and pharmaceutical/cosmetic applications thereof” (GALDERMA RESEARCH & DEVELOPMENT, priority 2006, published 2010).
